Results published in ChEMBL document CHEMBL3885861, “Open TG-GATES”.

Organism: Rattus norvegicus
Assay: Open TG-GATES - Regimen: Single
Format: toxicity, organism-based, Sprague-Dawley
Set-up: regimen Single, gender Male, age 6 weeks
Details: in vivo, po, 2 mg/kg, route gavage, dose level Low; for APTT / Bas / Eos / Fbg / Hb / Lym / MCH / MCHC / MCV / Mono / Neu / PT / Plat / RBC / Ret / WBC: tissue Blood; for KIDNEY_L / KIDNEY_R / KIDNEY_TOTAL: tissue Kidney; for LIVER: tissue Liver; for ALP / ALT / AST / BUN / CRE / Ca / Cl / DBIL / GLC / IP / K / LDH / Na / PL / RALB / TBIL / TC / TG / TP / gamma-GTP: tissue Plasma

OCCN1CCN(CCCN2c3ccccc3Sc3ccc(C(F)(F)F)cc32)CC1 [FLUPHENAZINE]
TERMINAL_BW (3 h): 193.4 g
APTT (3 h): 16.5 s
Bas (3 h): 0%
Eos (3 h): 0.8%
Fbg (3 h): 231.2 mg/dL
Hb (3 h): 13.2 g/dL
Lym (3 h): 76.6%
MCH (3 h): 21.9 pg
MCHC (3 h): 33.2%
MCV (3 h): 65.9 fL
Mono (3 h): 8.2%
Neu (3 h): 14.6%
PT (3 h): 12.5 s
Plat (3 h): 111 x10_4/uL
RBC (3 h): 605.2 x10_4/ul
Ret (3 h): 7.9%
WBC (3 h): 105.8 x10_2/uL
KIDNEY_L (3 h): 0.9 g
KIDNEY_R (3 h): 0.9 g
KIDNEY_TOTAL (3 h): 1.8 g
LIVER (3 h): 8.9 g
ALP (3 h): 678.4 IU/L
ALT (3 h): 29.6 IU/L
AST (3 h): 56.4 IU/L
BUN (3 h): 10.8 mg/dL
CRE (3 h): 0.5 mg/dL
Ca (3 h): 10.5 mg/dL
Cl (3 h): 105.2 meq/L
DBIL (3 h): 0.012 mg/dL
GLC (3 h): 193.4 mg/dL
IP (3 h): 10.4 mg/dL
K (3 h): 4.8 meq/L
LDH (3 h): 84 IU/L
Na (3 h): 137.8 meq/L
PL (3 h): 148 mg/dL
RALB (3 h): 3.9 g/dL
TBIL (3 h): 0.3 mg/dL
TC (3 h): 88.8 mg/dL
TG (3 h): 40 mg/dL
TP (3 h): 5.6 g/dL
gamma-GTP (3 h): 2.4 IU/L
TERMINAL_BW (6 h): 197 g
APTT (6 h): 16.5 s
Bas (6 h): 0%
Eos (6 h): 0.8%
Fbg (6 h): 220.8 mg/dL
Hb (6 h): 13 g/dL
Lym (6 h): 75.4%
MCH (6 h): 21.5 pg
MCHC (6 h): 33%
MCV (6 h): 65.3 fL
Mono (6 h): 8.6%
Neu (6 h): 15.6%
PT (6 h): 12.4 s
Plat (6 h): 113.3 x10_4/uL
RBC (6 h): 606.4 x10_4/ul
Ret (6 h): 8.7%
WBC (6 h): 86.8 x10_2/uL
KIDNEY_L (6 h): 0.9 g
KIDNEY_R (6 h): 0.9 g
KIDNEY_TOTAL (6 h): 1.8 g
LIVER (6 h): 8.5 g
ALP (6 h): 708.4 IU/L
ALT (6 h): 32.4 IU/L
AST (6 h): 57.2 IU/L
BUN (6 h): 10.2 mg/dL
CRE (6 h): 0.5 mg/dL
Ca (6 h): 10.2 mg/dL
Cl (6 h): 105.8 meq/L
DBIL (6 h): 0.002 mg/dL
GLC (6 h): 184.2 mg/dL
IP (6 h): 10.2 mg/dL
K (6 h): 4.8 meq/L
LDH (6 h): 84.8 IU/L
Na (6 h): 136.8 meq/L
PL (6 h): 150.6 mg/dL
RALB (6 h): 3.7 g/dL
TBIL (6 h): 0.4 mg/dL
TC (6 h): 92.4 mg/dL
TG (6 h): 33.6 mg/dL
TP (6 h): 5.3 g/dL
gamma-GTP (6 h): 2.2 IU/L
TERMINAL_BW (9 h): 192.1 g
APTT (9 h): 16.7 s
Bas (9 h): 0%
Eos (9 h): 0.6%
Fbg (9 h): 223 mg/dL
Hb (9 h): 13.1 g/dL
Lym (9 h): 74.2%
MCH (9 h): 21.6 pg
MCHC (9 h): 33%
MCV (9 h): 65.5 fL
Mono (9 h): 6.6%
Neu (9 h): 19%
PT (9 h): 12.3 s
Plat (9 h): 113.3 x10_4/uL
RBC (9 h): 609.2 x10_4/ul
Ret (9 h): 7.9%
WBC (9 h): 62.2 x10_2/uL
KIDNEY_L (9 h): 0.9 g
KIDNEY_R (9 h): 0.9 g
KIDNEY_TOTAL (9 h): 1.8 g
LIVER (9 h): 8.1 g
ALP (9 h): 829.8 IU/L
ALT (9 h): 27.4 IU/L
AST (9 h): 54.4 IU/L
BUN (9 h): 9 mg/dL
CRE (9 h): 0.5 mg/dL
Ca (9 h): 9.9 mg/dL
Cl (9 h): 104.4 meq/L
DBIL (9 h): 0.022 mg/dL
GLC (9 h): 176.8 mg/dL
IP (9 h): 10 mg/dL
K (9 h): 4.5 meq/L
LDH (9 h): 81.6 IU/L
Na (9 h): 137.2 meq/L
PL (9 h): 135.4 mg/dL
RALB (9 h): 3.6 g/dL
TBIL (9 h): 0.3 mg/dL
TC (9 h): 79.4 mg/dL
TG (9 h): 33.2 mg/dL
TP (9 h): 5.3 g/dL
gamma-GTP (9 h): 2.2 IU/L
TERMINAL_BW (24 h): 213 g
APTT (24 h): 17 s
Bas (24 h): 0%
Eos (24 h): 0.8%
Fbg (24 h): 209.8 mg/dL
Hb (24 h): 13.1 g/dL
Lym (24 h): 86.2%
MCH (24 h): 21.7 pg
MCHC (24 h): 33.2%
MCV (24 h): 65.4 fL
Mono (24 h): 4%
Neu (24 h): 9.2%
PT (24 h): 12.2 s
Plat (24 h): 117 x10_4/uL
RBC (24 h): 605.6 x10_4/ul
Ret (24 h): 7.7%
WBC (24 h): 112.3 x10_2/uL
KIDNEY_L (24 h): 0.9 g
KIDNEY_R (24 h): 0.9 g
KIDNEY_TOTAL (24 h): 1.9 g
LIVER (24 h): 10.8 g
ALP (24 h): 934.6 IU/L
ALT (24 h): 32.6 IU/L
AST (24 h): 56.6 IU/L
BUN (24 h): 22.2 mg/dL
CRE (24 h): 0.5 mg/dL
Ca (24 h): 11 mg/dL
Cl (24 h): 104.2 meq/L
DBIL (24 h): 0.014 mg/dL
GLC (24 h): 178.8 mg/dL
IP (24 h): 7.5 mg/dL
K (24 h): 5.1 meq/L
LDH (24 h): 92.8 IU/L
Na (24 h): 136.6 meq/L
PL (24 h): 166.6 mg/dL
RALB (24 h): 4.1 g/dL
TBIL (24 h): 0.3 mg/dL
TC (24 h): 82.6 mg/dL
TG (24 h): 139.2 mg/dL
TP (24 h): 6 g/dL
gamma-GTP (24 h): 1.6 IU/L
